Data set [1] concerns RABV CVS strain. Description: microbe, parasite or virus in culture. Conditions: for EC50: read-out: CVS EC50. In kind it is cell-based, rabies virus.
Data set [2] concerns pRABV (pseudovirus enveloped by the RABV glycoprotein G). Description: microbe, parasite or virus in culture. Type of data set: cell-based, rabies virus. Conditions: for EC50: read-out: pRABV EC50.
In data set [3] the test system is pVSV (pseudovirus expressing a vesicular stomatitis virus envelope glycoprotein). Description: microbe, parasite or virus in culture. In kind it is cell-based. Conditions: for EC50: read-out: pVSV EC50.
A short description of data set [4]: in vitro. The settings on record: human.
A further data set concerns RABV vaccine strain. The settings on record: cited from earlier work.
Another data set deals with Rabies virus CVS strain. Conditions: mouse, in vivo.
The subject of the next data set is rabies infection. The settings on record: mouse, in vivo; cited from earlier work.
Data set [5] has as its system RABV. Description: microbe, parasite or virus in culture. The settings on record: Lyssavirus rabies, in Felis catus. Type of data set: cell-based.
The nature of data set [6]: in vitro. The settings on record: cat.
The target of data set [7] is RABV. More on the design: species or system rabies virus. Conditions: read-out: binding affinity (KD).
Data set [8] in a line: in vitro. Conditions: hamster.
Data set [9] has as its system RABV CVS strain. Type of data set: cell-based, rabies virus.
Data set [10] has as its system RABV. The settings on record: cited from earlier work.

Each structure is given as a SMILES string. Values after ≈ are worked out from the molar mass of the structure shown. Values joined by “and” are separate entries in the source; they are usually repeats but may differ in a detail not shown here. Equal values may be shown once. Where a name gives a salt, the structure may show the parent alone. Read-outs that look alike come from different tables or passages of the source.

On to `CCCCNc1ccc(C(=O)OCCN(C)C)cc1` [Tetracaine hydrochloride], for which, in the data set with RABV CVS strain [1], the SICVS is listed as above 3.0. Also, the EC50 (usually the concentration needed to bring the measured effect to its halfway point) with RABV CVS strain [1] (Lyssavirus rabies, 24 h) is 67 µM; in [2] (Pseudovirus, HEK-293T, 48 h), 65.8 µM; in [3] (Pseudovirus, HEK-293T) it was above 200 µM. Moreover, in [2], the “SI pRABV” value was above 3. Further, in [3], the EC50pVSV/EC50pRABV was above 3. This molecule also had a CC50 in the data set “in vitro [4]” above 200 µM.
For `NC(=O)c1nc(F)cnc1O` [T-705, 6-fluoro-3-hydroxy-2-pyrazinecarboxamide], the concentration giving a half-maximal response (EC50) in the data set on RABV vaccine strain is 32.4 µM. Moreover, the “survival at 14 dpi” value in the data set on Rabies virus CVS strain (po, 300 mg/kg/day) is recorded as 40%. The “viral replication in the CNS” value in the data set on rabies infection is “suppress viral replication in the CNS”.
On to `CCOC(=O)C1=C(COCCN)NC(C)=C(C(=O)OC)C1c1ccccc1Cl` (stereo not drawn) [Amlodipine maleate], for which, in the data set on RABV CVS strain [1], the SICVS was 0.9 and the EC50 worked out at 37.8 µM. Further, in data set [2], the “SI pRABV” value worked out at 17.9 and the EC50 is 1.9 µM. Besides, in [3], the EC50pVSV/EC50pRABV is on record as 13.3 and the EC50 is 25.8 µM. Moreover, the CC50 in the data set on 293T cells came out at 34.9 µM.
Turning to `CC(C)N=c1cc2n(-c3ccc(Cl)cc3)c3ccccc3nc-2cc1Nc1ccc(Cl)cc1` [CFZM, Clofazimine methanesulfonate], the “survival rate compared with the control” value in the data set on Rabies virus CVS strain is “no improvement on the survival rate”. Moreover, the EC50 in the data set on RABV CVS strain [1] came to 2.5 µM.
For the molecule `CC(C)N=c1cc2n(-c3ccc(Cl)cc3)c3ccccc3nc-2cc1Nc1ccc(Cl)cc1` [CFZA, Clofazimine aspirin salt], the “survival rate at 14 dpi” value with Rabies virus CVS strain was 25%. Moreover, in the data set on RABV CVS strain [1], the EC50 turned out to be 1.2 µM.
As for `CNCCCC12CCC(c3ccccc31)c1ccccc12` [Maprotiline hydrochloride], in the data set on RABV CVS strain [1], the SICVS is given as above 4.5. This molecule also registered a CC50 in the data set “in vitro [4]” of 52 µM.
As for `CC(C)N=c1cc2n(-c3ccc(Cl)cc3)c3ccccc3nc-2cc1Nc1ccc(Cl)cc1` [CFZG, Clofazimine gallic acid salt], in the data set on Rabies virus CVS strain, the “percentage of sick mice at five dpi” value is given as 40% and the “survival rate compared with the control” value is on record as “no improvement on the survival rate”. In addition, in the data set with RABV CVS strain [1], the concentration giving a half-maximal response (EC50) turned out to be 2.07 µM.
As to `CCN(CC)Cc1cc(Nc2ccnc3cc(Cl)ccc23)ccc1O` [Amodiaquine hydrochloride], the SICVS in the data set with RABV CVS strain [1] worked out at 5.7. For the same molecule, the concentration giving a half-maximal response (EC50) in the data set with RABV CVS strain [1] (Lyssavirus rabies, 24 h) stood at 14.8 µM; in [2] (Pseudovirus, HEK-293T, 48 h), 4.2 µM; in data set [3] (Pseudovirus, HEK-293T), 24.3 µM. Also, the “SI pRABV” value in data set [2] was 20.3. The same molecule showed an EC50pVSV/EC50pRABV in data set [3] of 5.8. The CC50 in “in vitro [4]” was 84.9 µM.
In the data set on RABV CVS strain [1], `CN1CCC(=C2c3ccccc3CC(=O)c3sccc32)CC1` [Ketotifen fumarate] came in with an SICVS above 3.0. Also, the EC50 was found to be 67 µM in the data set with RABV CVS strain [1] (Lyssavirus rabies, 24 h); 10.8 µM in data set [2] (Pseudovirus, HEK-293T, 48 h); 87.8 µM in data set [3] (Pseudovirus, HEK-293T). Moreover, the “SI pRABV” value in data set [2] is on record as above 18. This molecule also gave an EC50pVSV/EC50pRABV in data set [3] of 8.1. This molecule displayed a CC50 in “in vitro [4]” above 200 µM.
In the case of `N.N.[Cl][Pt][Cl]` [Cisplatin], in the data set on RABV CVS strain [1], the SICVS was above 3.0 and the EC50 came to 67 µM. In addition, in data set [2], the “SI pRABV” value is reported as above 5.1 and the EC50 is 39.1 µM. Further, in data set [3], the EC50pVSV/EC50pRABV is above 5.1 and the EC50 is above 200 µM. The same molecule showed a CC50 in the data set on 293T cells above 200 µM.
For the molecule `CN1CCC(=C2c3ccccc3CCc3sccc32)CC1` [Pizotifen], the SICVS in the data set on RABV CVS strain [1] is given as 1.5. In addition, the EC50 in the data set on RABV CVS strain [1] (Lyssavirus rabies, 24 h) worked out at 67 µM; in data set [2] (Pseudovirus, HEK-293T, 48 h), 3.1 µM; in data set [3] (Pseudovirus, HEK-293T) it was 25.7 µM. Besides, the “SI pRABV” value in data set [2] is given as 32.3. The same molecule showed an EC50pVSV/EC50pRABV in [3] of 8.2. Besides, the CC50 in the data set “in vitro [4]” worked out at 100 µM.
For `CC(C)N=c1cc2n(-c3ccc(Cl)cc3)c3ccccc3nc-2cc1Nc1ccc(Cl)cc1` [CFZS, Clofazimine salicylates], in the data set on Rabies virus CVS strain, the “percentage of sick mice at five dpi” value is listed as 40%; the “survival at 14 dpi” value was 50% and 40%; the “survival rate at 14 dpi” value was determined as 30%. In addition, the “redness in the skin” value in the data set on Rabies virus CVS strain (po) is recorded as “No redness in the skin”. The same molecule returned an EC50 in the data set with RABV [5] of 4.71 µM. Also, the EC50 in the data set on RABV CVS strain [1] was found to be 1.2 µM. For the same molecule, the CC50 in “in vitro [6]” came to 670 µM.
On to `CC(CN1c2ccccc2S(=O)(=O)c2ccccc21)N(C)C.Cl` (stereo not drawn) [Dioxopromethazine hydrochloride], for which, in the data set with RABV CVS strain [1], the SICVS is above 3.0 and the EC50 is 67 µM. Besides, in [2], the “SI pRABV” value is above 5.5 and the half-maximal effective concentration (EC50) was 36.7 µM. Further, in data set [3], the EC50pVSV/EC50pRABV was above 5.5 and the EC50 was above 200 µM. The CC50 in the data set on 293T cells was above 200 µM.
Regarding `CC(C)/N=c1\cc2n(-c3ccc(Cl)cc3)c3ccccc3nc-2cc1Nc1ccc(Cl)cc1` [Clofazimine], the “antiviral efficacy (survival)” value in the data set on Rabies virus CVS strain is recorded as “did not show any antiviral efficacy”. For the same molecule, the “percentage of sick mice at five dpi” value with Rabies virus CVS strain turned out to be 50%. The “survival at 14 dpi” value in the data set with Rabies virus CVS strain is 30%. For the same molecule, the “survival rate at 14 dpi” value with Rabies virus CVS strain was determined as 10%. Moreover, the concentration for a half-maximal effect (EC50) was found to be 4.24 µM in the data set with RABV [5]; 2.28 µM with RABV CVS strain [1] (Lyssavirus rabies, 24 h); 2.28 µM in the data set on RABV CVS strain [1]; 1.7 µM in [2] (Pseudovirus, HEK-293T, 48 h); 10.5 µM in data set [3] (Pseudovirus, HEK-293T). On RABV [7], the Kd (usually the free concentration of one partner at which half of the binding sites on the other are occupied at equilibrium, for simple one-to-one binding) stood at 4.32 µM. Moreover, the concentration in solution in “physchem” (solubility) was 0.29 µg/mL (≈ 0.613 µM). The “concentrations inhibiting RABV” value with RABV CVS strain [1] fell in the range of 2 to 33 µM. Besides, the CC50 was 144 µM in “in vitro [6]”, above 2200 µM in “in vitro [8]” and above 200 µM in the data set “in vitro [4]”. The “inhibitory effect on RABV infection” value with RABV CVS strain [9] is recorded as “strong inhibitory effect”. Also, the “suppression of fluorescence activity (RABV infection)” value in the data set with RABV CVS strain [9] is “no suppression of fluorescence activity”.
For the molecule `CCc1c2c(nc3ccc(OC(=O)N4CCC(N5CCCCC5)CC4)cc13)-c1cc3c(c(=O)n1C2)COC(=O)[C@]3(O)CC.Cl` [Irinotecan hydrochloride], in the data set on RABV CVS strain [1], the SICVS came to 1.2 and the EC50 was found to be 67 µM. Moreover, in data set [2], the “SI pRABV” value is reported as above 5.9 and the EC50 came out at 33.6 µM. In addition, in [3], the EC50pVSV/EC50pRABV is on record as above 5.9 and the EC50 is above 200 µM. In the data set on 293T cells, this molecule yielded a CC50 above 200 µM.
Turning to `CC(C)N=c1cc2n(-c3ccc(Cl)cc3)c3ccccc3nc-2cc1Nc1ccc(Cl)cc1` [CFZH, Clofazimine hydrochloride salt], the “survival rate compared with the control” value in the data set on Rabies virus CVS strain was “no improvement on the survival rate”. Also, the EC50 in the data set on RABV CVS strain [1] worked out at 1.2 µM.
Turning to `CNC1(c2ccccc2Cl)CCCCC1=O` (stereo not drawn) [Ketamine], the “concentrations inhibiting RABV replication” value in the data set with RABV [10] is 1 to 2 mM.
Turning to `CCOC(=O)C1=C(COCCN)NC(C)=C(C(=O)OC)C1c1ccccc1Cl` (stereo not drawn) [Amlodipine besylate], the SICVS in the data set with RABV CVS strain [1] was determined as 1.0. The EC50 in the data set with RABV CVS strain [1] (Lyssavirus rabies, 24 h) was 37.4 µM; in data set [2] (Pseudovirus, HEK-293T, 48 h), 1.4 µM; in data set [3] (Pseudovirus, HEK-293T), 26.4 µM. The “SI pRABV” value in data set [2] was found to be 26.8. This molecule also registered an EC50pVSV/EC50pRABV in data set [3] of 19.4. In the data set “in vitro [4]”, this molecule had a CC50 of 36.3 µM.

The values are drawn from article PMC8012719 (Frontiers in Pharmacology, 2021).
